From patent US10195179B2, “Spiro-lactam NMDA receptor modulators and uses thereof” (Aptinyx Inc., priority 2016, dated 2019)
Read-outs that look alike come from different tables or passages of the source.

What was measured:
Sprague Dawley rats = test: Porsolt forced swim test; format: in vivo, rat; details: 1 mg/kg PO
Method: A non-clinical in vivo pharmacology study (Porsolt assay) was performed to measure antidepressant-like effects. A negative control (0.5% sodium carboxymethyl cellulose in 0.9% sterile saline vehicle) and a positive control (Compound C) were used to compare against Compound BB. The study allowed for the construction of a dose-response curve of the effects of each compound on the Porsolt forced swim test as assessed by the rats' response (reduced floating time) during a 5-minute swimming test.
Male 2-3 month old Sprague Dawley rats were used (Harlan, Indianapolis, Ind.). Rats were housed in Lucite cages with aspen wood chip bedding, maintained on a 12:12 light:dark cycle (lights on at 5 AM), and given ad libitum access to Purina lab chow (USA) and tap water throughout the study.
The Porsolt forced swim test adapted for use in rats was performed as described by Burgdorf et al., (The long-lasting antidepressant effects of rapastinel (GLYX-13) are associated with a metaplasticity process in the medial prefrontal cortex and hippocampus. Neuroscience 308:202-211, 2015). Animals were placed in a 46 cm tall×20 cm in diameter clear glass tube filled to 30 cm with tap water (23±1° C.) for 15 min on the first day (habituation) and 5 min on the subsequent test day. Animals were tested 1 h post-dosing with the compound BB, positive control (Compound C, 10 μg/kg), or vehicle (0.5% sodium carboxymethyl cellulose (Na-CMC) in 0.9% sterile saline). Water was changed after every other animal. Animals were videotaped, and floating time as defined as the minimal amount of effort required to keep the animals head above water was scored offline by a blinded experimenter with high inter-rater reliability (Pearson's r >0.9).
The maximally efficacious dose was defined as the lowest dose that was statistically different from vehicle but statistically equivalent (per Fisher's PLSD) to the higher doses. […]
Compound AA was assessed in a second set of animals at a single dose at 1 h post-administration and in a third set of animals at 24 h post-administration (FIG. 9B). […]

[1] = Bioavailability and CSF/brain/plasma exposure after PO administration; format: in vivo, Sprague Dawley rats; details: rat, plasma; PO administration (10 mg/kg PO, 2 mg/kg IV), male Sprague Dawley rats; read-out: Bioavailablity (% F)
Method: The bioavailablity of Compound BB was investigated following PO administration. CSF, brain and plasma samples were analyzed following dosing with compound BB (10 mg/kg). The following table indicates the bioavailablity and CSF/plasma and brain/plasma ratios.
Sprague Dawley rats were dosed intravenously with 2 mg/kg of Compound AA. A second group of Sprague Dawley rats was dosed per os with 10 mg/kg of compound AA. Plasma samples were drawn over a 24 h period and analyzed for Compound AA. FIG. 3A presents the mean plasma concentration-time profile of Compound AA following the single intraveneous (2 mg/kg) and oral (10 mg/kg) dose administration in male Sprague Dawley rats over the 24 hour period.
In another experiment. Sprague Dawley rats were dosed intravenously with 2 mg/kg of Compound BB. A second group of Sprague Dawley rats was dosed per os with 10 mg/kg of compound BB. Plasma samples were drawn over a 24 h period and analyzed for Compound BB. FIG. 3B presents the mean plasma concentration-time profile of Compound BB following the single intraveneous (2 mg/kg) and oral (10 mg/kg) dose administration in male Sprague Dawley rats over the 24 hour period.
In another experiment, Sprague Dawley rats were dosed per os with 10 mg/kg of Compound BB. Plasma, brain, and CSF samples were analyzed at various time points over a 24 hour period.

NR2C = NR2C (Homo sapiens, UniProt Q14957); test: Potentiation of [3H]MK-801 binding, wild-type NMDAR2C; set-up: species or system rat; details: for NMDAR2C BINDING PROFILE % 1 mM Glycine: relative to 1 mM glycine
Method: (§1) Assays were conducted as described by Moskal et al., “GLYX-13: a monoclonal antibody-derived peptide that acts as an N-methyl-D-aspartate receptor modulator,” Neuropharmacology, 49, 1077-87, 2005. The potentiation of [^3H]MK-801 binding (5 nM; 22.5 Ci/mmol) to well washed rat cortical membranes (200 μg) was measured under non-equilibrium conditions (15 min @ 25° C.) in the presence of increasing concentrations of Compound AA or Compound BB.
(§2) FIG. 2A depicts the potentiation of [^3H]MK-801 binding for wild-type NMDAR2 subtypes in the presence of Compound AA. FIG. 2B depicts the potentiation of [^3H]MK-801 binding for wild-type NMDAR2 subtypes in the presence of Compound BB. The following table depicts the results (P means potency and A means activity): […]

NR2D = NR2D (Homo sapiens, UniProt O15399); test: Potentiation of [3H]MK-801 binding, wild-type NMDAR2D; set-up: species or system rat; details: for NMDAR2D BINDING PROFILE % 1 mM Glycine: relative to 1 mM glycine
Method: as §1, §2

NR2B = NR2B (Homo sapiens, UniProt Q13224); test: Potentiation of [3H]MK-801 binding, wild-type NMDAR2B; set-up: species or system rat; details: for NMDAR2B BINDING PROFILE % 1 mM Glycine: relative to 1 mM glycine
Method: as §1, §2

Plasma stability, human = format: in vitro ADME
Method: (§3) Plasma stability for Compound AA and Compound BB was investigated. The following table indicates the percent of Compound AA and Compound BB remaining after 60 minutes.

[2] = Plasma protein binding assay, rat; format: in vitro ADME; details: read-out: Plasma Protein binding (% Bound) Plasma rat (converted)
Method: Bound drug concentration in the brain was also investigated, and plasma protein binding assays were conducted. The following table (% bound) indicates results for Compound AA and Compound BB.

Plasma stability, rat = format: in vitro ADME
Method: as §3

[3] = Microsomal stability, human; format: in vitro ADME; details: human microsomes
Method: (§4) Microsomal stability for Compound AA and Compound BB was investigated. The following table indicates the percent of Compound AA and Compound BB remaining after 60 minutes.

NR2A = NR2A (Homo sapiens, UniProt Q12879); test: Potentiation of [3H]MK-801 binding, wild-type NMDAR2A; set-up: species or system rat; details: for NMDAR2A BINDING PROFILE % 1 mM Glycine: relative to 1 mM glycine
[4] = Microsomal stability, rat; format: in vitro ADME; details: rat microsomes
Method: as §4

[5] = potentiation of [3H]MK-801 binding
[6] = wild-type NMDAR2D, read-out: NMDAR2D BINDING PROFILE −logEC50 (converted)

Sequence of NR2A (Q12879 23-1464, species assumed, other chains not shown): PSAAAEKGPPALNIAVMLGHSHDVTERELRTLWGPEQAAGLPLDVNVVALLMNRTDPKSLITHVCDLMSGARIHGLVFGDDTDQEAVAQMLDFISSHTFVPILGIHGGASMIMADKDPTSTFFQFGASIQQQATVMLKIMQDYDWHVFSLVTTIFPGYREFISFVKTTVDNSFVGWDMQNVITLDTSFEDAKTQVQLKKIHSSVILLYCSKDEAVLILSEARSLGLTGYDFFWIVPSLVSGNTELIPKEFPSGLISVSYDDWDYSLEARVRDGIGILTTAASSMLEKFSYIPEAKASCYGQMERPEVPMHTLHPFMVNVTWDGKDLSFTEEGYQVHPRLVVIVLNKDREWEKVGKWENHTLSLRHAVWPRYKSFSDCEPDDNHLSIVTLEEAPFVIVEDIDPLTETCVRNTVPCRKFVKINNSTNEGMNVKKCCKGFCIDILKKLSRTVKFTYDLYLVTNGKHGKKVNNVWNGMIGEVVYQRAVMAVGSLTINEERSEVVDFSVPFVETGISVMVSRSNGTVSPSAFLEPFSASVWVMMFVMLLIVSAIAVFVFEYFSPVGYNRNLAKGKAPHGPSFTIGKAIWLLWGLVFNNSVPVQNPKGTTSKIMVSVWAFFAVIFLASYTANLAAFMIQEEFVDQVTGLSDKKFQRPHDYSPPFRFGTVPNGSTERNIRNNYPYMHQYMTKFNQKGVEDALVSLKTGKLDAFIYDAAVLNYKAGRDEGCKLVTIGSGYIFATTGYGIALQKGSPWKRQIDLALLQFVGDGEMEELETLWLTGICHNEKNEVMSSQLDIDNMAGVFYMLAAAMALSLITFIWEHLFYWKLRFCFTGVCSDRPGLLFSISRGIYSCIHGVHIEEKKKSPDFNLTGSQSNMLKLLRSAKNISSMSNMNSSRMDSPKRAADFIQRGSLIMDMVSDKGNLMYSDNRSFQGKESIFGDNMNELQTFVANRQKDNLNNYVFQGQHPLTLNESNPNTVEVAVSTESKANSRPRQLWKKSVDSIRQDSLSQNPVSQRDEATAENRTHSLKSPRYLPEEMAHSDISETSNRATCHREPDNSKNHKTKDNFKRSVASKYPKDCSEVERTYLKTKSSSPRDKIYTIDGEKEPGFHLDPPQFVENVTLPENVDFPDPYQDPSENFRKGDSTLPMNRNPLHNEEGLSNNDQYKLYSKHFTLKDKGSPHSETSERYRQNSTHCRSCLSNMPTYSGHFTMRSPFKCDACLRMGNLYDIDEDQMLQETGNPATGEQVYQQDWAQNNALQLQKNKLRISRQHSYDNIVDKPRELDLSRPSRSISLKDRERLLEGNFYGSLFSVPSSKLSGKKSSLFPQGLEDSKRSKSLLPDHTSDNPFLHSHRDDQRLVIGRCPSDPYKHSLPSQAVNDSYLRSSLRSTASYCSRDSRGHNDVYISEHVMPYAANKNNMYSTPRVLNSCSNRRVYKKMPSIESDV
Sequence of NR2C (Q14957 20-1233, species assumed, other chains not shown): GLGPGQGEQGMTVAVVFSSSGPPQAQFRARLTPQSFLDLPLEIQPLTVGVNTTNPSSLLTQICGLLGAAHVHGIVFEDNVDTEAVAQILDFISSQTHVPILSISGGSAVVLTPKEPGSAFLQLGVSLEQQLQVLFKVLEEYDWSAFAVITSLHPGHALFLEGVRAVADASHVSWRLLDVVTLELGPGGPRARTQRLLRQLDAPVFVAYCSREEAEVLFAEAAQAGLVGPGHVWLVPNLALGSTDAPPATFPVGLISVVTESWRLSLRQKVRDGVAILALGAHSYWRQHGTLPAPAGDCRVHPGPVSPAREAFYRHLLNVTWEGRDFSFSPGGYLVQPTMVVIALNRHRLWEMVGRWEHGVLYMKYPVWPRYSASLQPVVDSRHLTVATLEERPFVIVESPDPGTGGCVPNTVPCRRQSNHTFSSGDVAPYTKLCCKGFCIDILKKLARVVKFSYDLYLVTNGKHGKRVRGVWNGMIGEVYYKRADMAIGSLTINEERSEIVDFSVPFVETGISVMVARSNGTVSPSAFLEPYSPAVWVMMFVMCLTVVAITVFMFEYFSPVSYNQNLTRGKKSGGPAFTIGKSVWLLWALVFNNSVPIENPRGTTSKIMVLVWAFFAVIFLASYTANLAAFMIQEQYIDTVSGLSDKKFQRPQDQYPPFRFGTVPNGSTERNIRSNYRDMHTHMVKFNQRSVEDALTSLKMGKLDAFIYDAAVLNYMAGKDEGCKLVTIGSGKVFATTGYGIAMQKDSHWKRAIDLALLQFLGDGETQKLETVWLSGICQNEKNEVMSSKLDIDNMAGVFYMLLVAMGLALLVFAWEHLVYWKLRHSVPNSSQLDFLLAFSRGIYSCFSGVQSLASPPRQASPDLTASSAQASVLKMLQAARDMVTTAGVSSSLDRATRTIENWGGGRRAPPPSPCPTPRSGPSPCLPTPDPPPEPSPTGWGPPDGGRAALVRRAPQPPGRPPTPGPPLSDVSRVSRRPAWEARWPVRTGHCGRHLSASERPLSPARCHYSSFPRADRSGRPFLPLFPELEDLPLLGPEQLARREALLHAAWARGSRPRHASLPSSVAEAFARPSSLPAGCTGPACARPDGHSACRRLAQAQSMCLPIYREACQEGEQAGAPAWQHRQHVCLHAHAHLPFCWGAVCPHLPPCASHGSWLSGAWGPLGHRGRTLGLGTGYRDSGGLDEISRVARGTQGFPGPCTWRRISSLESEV
Sequence of NR2B (Q13224 27-1484, species assumed, other chains not shown): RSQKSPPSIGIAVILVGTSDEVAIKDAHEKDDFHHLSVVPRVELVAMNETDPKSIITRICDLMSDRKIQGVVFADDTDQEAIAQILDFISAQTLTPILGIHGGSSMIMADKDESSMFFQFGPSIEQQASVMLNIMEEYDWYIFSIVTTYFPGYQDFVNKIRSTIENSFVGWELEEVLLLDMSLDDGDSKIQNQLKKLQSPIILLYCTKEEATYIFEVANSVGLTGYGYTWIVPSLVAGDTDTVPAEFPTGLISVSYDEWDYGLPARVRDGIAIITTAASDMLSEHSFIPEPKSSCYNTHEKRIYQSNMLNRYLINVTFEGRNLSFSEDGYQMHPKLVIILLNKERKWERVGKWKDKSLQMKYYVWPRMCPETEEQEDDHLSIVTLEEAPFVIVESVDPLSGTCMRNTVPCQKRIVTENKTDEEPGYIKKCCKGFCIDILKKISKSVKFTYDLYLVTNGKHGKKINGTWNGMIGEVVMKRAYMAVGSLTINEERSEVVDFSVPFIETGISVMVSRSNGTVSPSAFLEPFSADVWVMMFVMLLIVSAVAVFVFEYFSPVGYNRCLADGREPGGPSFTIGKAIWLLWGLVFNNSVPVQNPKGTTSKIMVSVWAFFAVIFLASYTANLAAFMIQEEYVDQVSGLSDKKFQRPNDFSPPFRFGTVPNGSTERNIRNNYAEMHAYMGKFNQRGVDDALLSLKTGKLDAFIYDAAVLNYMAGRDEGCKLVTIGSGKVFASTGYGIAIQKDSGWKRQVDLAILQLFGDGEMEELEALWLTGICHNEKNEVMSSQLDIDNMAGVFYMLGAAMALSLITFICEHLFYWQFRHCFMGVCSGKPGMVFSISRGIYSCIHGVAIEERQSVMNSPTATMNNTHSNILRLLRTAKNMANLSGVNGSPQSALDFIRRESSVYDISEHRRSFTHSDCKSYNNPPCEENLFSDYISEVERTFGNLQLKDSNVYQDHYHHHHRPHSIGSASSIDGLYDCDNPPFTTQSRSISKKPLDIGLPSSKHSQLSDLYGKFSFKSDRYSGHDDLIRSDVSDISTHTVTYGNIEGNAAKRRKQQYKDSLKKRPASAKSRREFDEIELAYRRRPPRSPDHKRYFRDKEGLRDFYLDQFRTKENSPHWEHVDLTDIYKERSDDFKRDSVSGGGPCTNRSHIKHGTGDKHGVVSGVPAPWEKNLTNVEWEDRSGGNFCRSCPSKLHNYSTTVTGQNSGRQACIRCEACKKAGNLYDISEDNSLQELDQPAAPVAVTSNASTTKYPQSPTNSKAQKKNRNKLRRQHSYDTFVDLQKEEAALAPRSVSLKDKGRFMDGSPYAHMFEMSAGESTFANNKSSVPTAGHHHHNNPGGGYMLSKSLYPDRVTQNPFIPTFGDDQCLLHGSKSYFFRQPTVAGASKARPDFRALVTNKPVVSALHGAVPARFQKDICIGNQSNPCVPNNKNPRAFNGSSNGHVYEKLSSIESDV

C[C@@H](O)[C@@H](C(N)=O)N1C[C@]2(CCCN2S(C)(=O)=O)C1=O [Compound AA, (2S,3R)-3-hydroxy-2-((R)-5-(methylsulfonyl)-1-oxo-2,5-diazaspiro[3,4]octan-2-yl)butanamide]
floating time in the Porsolt test (Sprague Dawley rats; 1 h post-dosing): significant (p<0.05) antidepressant-like effect | floating time in the Porsolt test (Sprague Dawley rats; 24 h post-dosing): significant (p<0.05) antidepressant-like effect | bioavailability [1]: 29% | NR2C A (%) (activity) (NR2C; [5]): 67.0% | EC50 (NR2C; potentiation of [3H]MK-801 binding, 0 = no activity, read-out: NR2C P (M) (potency)): 1e-10 M | NMDAR2C BINDING PROFILE % 1 mM Glycine (NR2C): 67% | NMDAR2C BINDING PROFILE Conclusion (NR2C; wild-type NMDAR2C): WT2C agonist | NMDAR2C BINDING PROFILE −logEC50 (NR2C; wild-type NMDAR2C, 0 = no activity): 10 | NR2D A (%) (activity) (NR2D; [5]): 58.7% | EC50 (NR2D; potentiation of [3H]MK-801 binding, 0 = no activity, read-out: NR2D P (M) (potency) (converted)): 2e-11 M | NMDAR2D BINDING PROFILE % 1 mM Glycine (NR2D): 52% | NMDAR2D BINDING PROFILE Conclusion (NR2D; wild-type NMDAR2D): WT2D agonist | EC50 (NR2D; [6]): 1.58e-11 M | NR2B A (%) (activity) (NR2B; [5]): 0% | NMDAR2B BINDING PROFILE % 1 mM Glycine (NR2B): 0% | NMDAR2B BINDING PROFILE Conclusion (NR2B; wild-type NMDAR2B): WT2B no | Plasma Stability (% remaining at 60 min) Human (Plasma stability, human): 91% | fraction unbound [2]: 0.82 | Plasma Stability (% remaining at 60 min) Rat (Plasma stability, rat): 59% | Microsomal Stability (% remaining at 60 min) Human [3]: 100% | NR2A A (%) (activity) (NR2A; [5]): 38.8% | EC50 (NR2A; potentiation of [3H]MK-801 binding, 0 = no activity, read-out: NR2A P (M) (potency)): 1e-10 M | NMDAR2A BINDING PROFILE % 1 mM Glycine (NR2A): 38.8% | NMDAR2A BINDING PROFILE Conclusion (NR2A; wild-type NMDAR2A): WT2A agonist | NMDAR2A BINDING PROFILE −logEC50 (NR2A; wild-type NMDAR2A, 0 = no activity): 10 | Microsomal Stability (% remaining at 60 min) Rat [4]: 100%

C[C@@H](O)[C@@H](C(N)=O)N1C[C@]2(CCCN2C(=O)OC(C)(C)C)C1=O [Compound W, tert-butyl (R)-2-((2S,3R)-1-amino-3-hydroxy-1-oxobutan-2-yl)-1-oxo-2,5-diazaspiro[3,4]octane-5-carboxylate]
NMDAR2C BINDING PROFILE % 1 mM Glycine (NR2C): 67.5% | NMDAR2C BINDING PROFILE Conclusion (NR2C; wild-type NMDAR2C): WT2C agonist | EC50 (NR2C; wild-type NMDAR2C, 0 = no activity, read-out: NMDAR2C BINDING PROFILE −logEC50 (converted)): 1.45e-10 M | NMDAR2D BINDING PROFILE % 1 mM Glycine (NR2D): 66.72% | NMDAR2D BINDING PROFILE Conclusion (NR2D; wild-type NMDAR2D): WT2D agonist | EC50 (NR2D; [6]): 7.08e-12 M | NMDAR2B BINDING PROFILE % 1 mM Glycine (NR2B): 53.09% | NMDAR2B BINDING PROFILE Conclusion (NR2B; wild-type NMDAR2B): WT2B agonist | EC50 (NR2B; wild-type NMDAR2B, 0 = no activity, read-out: NMDAR2B BINDING PROFILE −logEC50 (converted)): 1060 pM | NMDAR2A BINDING PROFILE % 1 mM Glycine (NR2A): 18.33% | NMDAR2A BINDING PROFILE Conclusion (NR2A; wild-type NMDAR2A): WT2A agonist | EC50 (NR2A; wild-type NMDAR2A, 0 = no activity, read-out: NMDAR2A BINDING PROFILE −logEC50 (converted)): 4.47e-12 M
